Here are results for 38 compounds from patent US9518015B2, “EP1 receptor ligands” (LABORATORIOS DEL DR. ESTEVE, S.A., priority 2011, dated 2016).

Some results are limits rather than exact numbers.

One experiment has as its target T1, human EP1 receptor (Homo sapiens, UniProt P34995).
T1 sequence (P34995 1-402): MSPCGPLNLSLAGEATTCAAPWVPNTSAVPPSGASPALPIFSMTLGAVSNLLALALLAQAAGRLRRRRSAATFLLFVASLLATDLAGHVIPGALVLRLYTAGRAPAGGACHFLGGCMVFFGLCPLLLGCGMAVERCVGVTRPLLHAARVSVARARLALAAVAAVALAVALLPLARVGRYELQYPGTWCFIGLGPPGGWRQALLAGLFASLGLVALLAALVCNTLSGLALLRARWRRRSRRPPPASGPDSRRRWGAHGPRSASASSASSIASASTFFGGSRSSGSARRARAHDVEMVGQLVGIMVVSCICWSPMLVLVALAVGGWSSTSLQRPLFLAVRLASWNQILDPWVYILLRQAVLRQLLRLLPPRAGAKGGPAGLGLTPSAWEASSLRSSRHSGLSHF
The experiment is described as follows: Test 2: Measurement of IP1 responses by HTRF, suspended HEK-293 cells stably expressing human EP1 receptors, PGE2 30 nM. On the set-up: expressed in transfected cells. The settings on record: HEK293, at 10 μM, read-out: Results of Test 2 (Functional assay), % inh. It counts as cell-based. On the procedure:
Test 2: Measurement of IP1 responses by Homogeneous Time Resolved Fluorescence
IP1 measurements on HEK-293 cells that stably expressed human EP1 receptors were performed by using a system based on Homogeneous Time Resolved Fluorescense (HTRF) (Gabriel et al., 2003). This technology allows the direct measurement of IP1 in living cells. The principle of this assay is based on competition between IP1 produced by cells and IP1-d2 conjugate for the binding with monoclonal anti-IP1-cryptate conjugate. The HTRF IP1 kit from CisBio was used according to the manufacturer's directions. The experimental procedure was performed as stated below.
Suspended cells (30,000 cells per well) were added to 96-well culture plates in 40 μl of stimulation buffer (supplied by the kit). Compounds were then added in 20 μl of stimulation buffer and incubated at 37° C. for 15 minutes followed by 10 μl of PGE2 to a final concentration of […]. After 90 minutes at 37° C., the reaction was stopped lysing the cells with a mixture of 15 μl of cryptate and 15 μl of IP1-d2 prepared in the lysis buffer supplied by the manufacturer. Plates were incubated for an additional hour at room temperature and read at 665 nm/620 nm using an UltraEvolution Plate reader (Tecan).
Antagonist percentage inhibition was calculated relating compounds activity to the 0% inhibition of the wells incubated with 10 nM PGE2 alone and 100% inhibition of the wells incubated with 10 nM PGE2 plus 1 μM of the reference antagonist.
(TR-FRET usually uses a lanthanide donor and a delayed reading to cut background.)
As to `O=C(O)c1cccc2c1ccn2Cc1cc(Br)ccc1OCc1ccccc1` [Example 2, 1-(2-(benzyloxy)-5-bromobenzyl)-1H-indole-4-carboxylic acid], the inhibition at 10 µM is greater than 75%.

Take `O=C(O)c1cccc2c1ccn2Cc1cc(C(F)(F)F)ccc1OCc1ccccc1` [Example 3, 1-(2-(benzyloxy)-5-(trifluoromethyl)benzyl)-1H-indole-4-carboxylic acid]: the inhibition at 10 µM was greater than 75%.

With `O=C(O)c1cccc2c1ccn2Cc1cc(Br)ccc1OCc1ccc(F)cc1` [Example 4, 1-(5-bromo-2-((4-fluorobenzyl)oxy)benzyl)-1H-indole-4-carboxylic acid], the inhibition at 10 µM was greater than 75%.

`O=C(O)c1cccc2c1ccn2Cc1cc(Cl)ccc1OCc1ccc(F)cc1` [Example 5, 1-(5-chloro-2-((4-fluorobenzyl)oxy)benzyl)-1H-indole-4-carboxylic acid]: the inhibition at 10 µM was greater than 75%.

Regarding `O=C(O)c1cccc2c1ccn2Cc1cc(C(F)(F)F)ccc1OCc1ccc(Cl)cc1F` [Example 6, 1-(2-((4-chloro-2-fluorobenzyl)oxy)-5-(trifluoromethyl)benzyl)-1H-indole-4-carboxylic acid], the inhibition at 10 µM was greater than 75%.

Regarding `O=C(O)c1cccc2c1ccn2Cc1cc(Cl)ccc1OCC1CC1` [Example 7, 1-(5-chloro-2-(cyclopropylmethoxy)benzyl)-1H-indole-4-carboxylic acid], the inhibition at 10 µM is greater than 75%.

Take `O=C(O)c1cccc2c1ccn2Cc1cc(Br)ccc1OCC1CC1` [Example 8, 1-(5-bromo-2-(cyclopropylmethoxy)benzyl)-1H-indole-4-carboxylic acid]: the inhibition at 10 µM was greater than 75%.

The experiment is the same for the next values; noted with them: at 10 μM.
“2-((1-(5-chloro-2-(cyclopropylmethoxy)benzyl)-1H-indol-4-yl)oxy)acetic acid [Example 86]”: the “Results of Test 2 (Functional assay), % inh” value is reported as “$$ (45 < % inh < 75)”.

Another experiment concerns the target T1, human EP1 receptor. The experiment is described as follows: Test 1: Human EP1 receptor radioligand binding assay ([3H]-PGE2, transfected HEK-293 cell membranes). On the set-up: expressed in transfected cells; host or cells: HEK-293 cell membranes. To be noted: at 10 μM. The procedure:
Test 1: Human EP1 Receptor Radioligand Binding Assay
To investigate binding properties of EP1 receptor ligands to human EP1 receptor, transfected HEK-293 cell membranes and [3H]-PGE2 (Perkin Elmer) were used. In 96-well plates the assay was carried out with a total reaction volume of 250 μl, containing 25 μl of membrane suspension (30 μg protein/well), 25 μl of [3H]-PGE2 (10 nM) in either absence or presence of 25 μl of either buffer or PGE2 (10 μM) for total and non-specific binding, respectively. Binding buffer contained 10 mM MES, 1 mM MgCl2 and 1 mM EDTA at pH 6.0. Plates were incubated at 25° C. for 60 minutes. After the incubation period, 200 μl of incubate were transferred to MultiScreen HTS, FB plates (Millipore), filtered and plates were washed 6 times with ice-cold 10 mM MES, 1 mM MgCl2 and 1 mM EDTA at pH 6.0. Filters were dried and counted in a MicroBeta scintillation counter (Perkin-Elmer) using EcoScint liquid scintillation cocktail.
Percentage inhibition was calculated relating compounds activity to the 0% inhibition of the wells incubated with 10 nM [3H]-PGE2 alone (total binding) and 100% inhibition of the wells incubated with 10 nM [3H]-PGE2 plus 10 μM PGE2 (non-specific binding).
“1-(5-chloro-2-((2-chloro-5-fluorobenzyl)oxy)benzyl)-1H-indole-4-carboxylic acid [Example 30]”: the “Results of Test 1 (Binding assay), % inh” value is listed as “## (45 < % inh < 75)”.

With `CC(C)(F)COc1ccc(Cl)cc1Cn1ncc2c(C(=O)[O-])ccnc21.[Na+]` [Example 213], the “Results of Test 1 (Binding assay), % inh” value is “# (% inh > 75)”.

Staying with this experiment, now noted: read-out: Results of Test 1 (Binding assay), % inh.
Consider `O=C(O)c1cccc2c1ccn2Cc1cc(Cl)ccc1OCc1cc(F)c(F)cc1F` [Example 15, 1-(5-chloro-2-((2,4,5-trifluorobenzyl)oxy)benzyl)-1H-indole-4-carboxylic acid], for which the inhibition at 10 µM was greater than 75%.

As for `O=C(O)c1cccc2c1ccn2Cc1cc(F)ccc1OCc1cc(F)c(F)cc1F` [Example 16, 1-(5-fluoro-2-((2,4,5-trifluorobenzyl)oxy)benzyl)-1H-indole-4-carboxylic acid], the inhibition at 10 µM was greater than 75%.

Take `O=C(O)c1cccc2c1ccn2Cc1cc(Br)ccc1OCc1ccc(F)c(F)c1F` [Example 22, 1-(5-bromo-2-((2,3,4-trifluorobenzyl)oxy)benzyl)-1H-indole-4-carboxylic acid]: the inhibition at 10 µM was in the range of 45 to 75%.

`O=C(O)c1cccc2c1ccn2Cc1cc(Br)ccc1OCc1ccc(F)cc1C(F)(F)F` [Example 26, 1-(5-bromo-2-((4-fluoro-2-(trifluoromethyl)benzyl)oxy)benzyl)-1H-indole-4-carboxylic acid]: the inhibition at 10 µM is greater than 75%.

With `O=C(O)c1cccc2c1ccn2Cc1cc(Br)ccc1OCc1ccc(F)cc1Cl` [Example 27, 1-(5-bromo-2-((2-chloro-4-fluorobenzyl)oxy)benzyl)-1H-indole-4-carboxylic acid], the inhibition at 10 µM was greater than 75%.

With `O=C(O)c1cccc2c1ccn2Cc1cc(Cl)ccc1OCc1cc(F)c(F)cc1Cl` [Example 31, 1-(5-chloro-2-((2-chloro-4,5-difluorobenzyl)oxy)benzyl)-1H-indole-4-carboxylic acid], the inhibition at 10 µM fell in the range of 45 to 75%.

As to `O=C(O)c1cccc2c1ccn2Cc1cc(F)ccc1OCc1cc(F)ccc1F` [Example 32, 1-(2-((2,5-difluorobenzyl)oxy)-5-fluorobenzyl)-1H-indole-4-carboxylic acid], the inhibition at 10 µM lay in the range of 45 to 75%.

With `O=C(O)c1cccc2c1ccn2Cc1cc(Cl)ccc1OCc1ccccc1` [Example 44, 1-(2-(benzyloxy)-5-chlorobenzyl)-1H-indole-4-carboxylic acid], the inhibition at 10 µM was greater than 75%.

Take `O=C(O)c1cccc2c1ccn2Cc1cc(C(F)(F)F)ccc1OCc1ccc(Br)cc1F` [Example 50, 1-(2-((4-bromo-2-fluorobenzyl)oxy)-5-(trifluoromethyl)benzyl)-1H-indole-4-carboxylic acid]: the inhibition at 10 µM is greater than 75%.

Regarding `O=C(O)c1cccc2c1ccn2Cc1cc(F)ccc1OCc1ccc(Br)cc1F` [Example 56, 1-(2-((4-bromo-2-fluorobenzyl)oxy)-5-fluorobenzyl)-1H-indole-4-carboxylic acid], the inhibition at 10 µM is greater than 75%.

Regarding `O=C(O)c1cccc2c1ccn2Cc1cc(Cl)ccc1OCc1c(F)cc(Cl)cc1F` [Example 57, 1-(5-chloro-2-((4-chloro-2,6-difluorobenzyl)oxy)benzyl)-1H-indole-4-carboxylic acid], the inhibition at 10 µM is greater than 75%.

As for `O=C(O)c1ccnc2c1ccn2Cc1cc(Cl)ccc1OCc1ccc(F)cc1F` [Example 91], the inhibition at 10 µM was greater than 75%.

Regarding `O=C(O)c1ncnc2c1ccn2Cc1cc(Cl)ccc1OCc1ccc(Cl)cc1F` [Example 98], the inhibition at 10 µM is greater than 75%.

Take `COc1ccc(OCc2ccc(F)cc2F)c(Cn2ccc3c(C(=O)O)cccc32)c1` [Example 101, sodium 1-{2-[(2,4-difluorobenzyl)oxy]-5-methoxybenzyl}-1H-indole-4-carboxylate]: the inhibition at 10 µM lay in the range of 45 to 75%.

As to `CCCOc1ccc(F)cc1Cn1ccc2c(C(=O)O)cccc21` [Example 104], the inhibition at 10 µM is 45 to 75%.

For the compound `O=C(O)c1cccc2c1ccn2Cc1cc(Cl)ccc1OC1CCCC1` [Example 105], the inhibition at 10 µM is greater than 75%.

With `CCCOc1ccc(Cl)cc1Cn1ccc2c(C(=O)O)cccc21` [Example 106], the inhibition at 10 µM fell in the range of 45 to 75%.

Take `CC(C)COc1ccc(F)cc1Cn1ccc2c(C(=O)O)cccc21` [Example 108]: the inhibition at 10 µM was 45 to 75%.

With `O=C(O)c1cccc2c1ccn2Cc1cc(Cl)ccc1OCCF` [Example 111], the inhibition at 10 µM fell in the range of 45 to 75%.

On to `O=C(O)c1cccc2c1ccn2Cc1cc(Cl)ccc1OCC(F)(F)F` [Example 112], for which the inhibition at 10 µM is greater than 75%.

As to `O=C(O)c1cccc2c1cnn2Cc1cc(Cl)ccc1OC1CCCC1` [Example 133], the inhibition at 10 µM is greater than 75%.

`CCCOc1ccc(F)cc1Cn1ncc2c(C(=O)O)cccc21` [Example 135]: the inhibition at 10 µM is 45 to 75%.

`O=C(O)c1ccc(F)c2c1ccn2Cc1ccccc1OCc1ccc(F)cc1F` [Example 140]: the inhibition at 10 µM lay in the range of 45 to 75%.

For `CC(C)(F)COc1ccc(Cl)cc1Cn1cc(CCO)c2c(C(=O)O)cccc21` [Example 158], the inhibition at 10 µM is greater than 75%.

Take `O=C(O)c1cccc2c1c(CCO)cn2Cc1cc(F)ccc1OCc1ccc(F)cc1F` [Example 159]: the inhibition at 10 µM is greater than 75%.

`CC(C)C(C)Oc1ccc(Cl)cc1CN1CCCc2c(C(=O)O)cccc21` (centres unmarked) [Example 176]: the inhibition at 10 µM fell in the range of 45 to 75%.

Consider `COCCOc1ccc(Cl)cc1CN1CCc2c(C(=O)O)cccc21` [Example 201], for which the inhibition at 10 µM lay within 45 to 75%.

On to `CC(C)(C)COc1ccc(Cl)cc1CN1CCc2c(C(=O)O)cccc21` [Example 203], for which the inhibition at 10 µM is 45 to 75%.
